The values that follow come from patent US9193722B2, “Tri-cyclic pyrazolopyridine kinase inhibitors” (Vertex Pharmaceuticals Incorporated, priority 2008, dated 2015).

What all share (format): biochemical
In assay [1] the target is PKC theta kinase (Homo sapiens, UniProt Q04759). The assay can be described thus: PKC theta kinase inhibition, coupled-enzyme (NADH absorbance) assay, Ki. The settings on record: 240 μM ATP, 18 nM PKC theta kinase, 30° C. The method in brief:
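Coupled-enzyme kinase assay following NADH absorbance at 340 nm, in 100 mM HEPES pH 7.5, 10 mM MgCl2, 25 mM NaCl, 0.1 mM EDTA, 0.01% Brij. Compound in DMSO preincubated with enzyme 10 min at 30 °C. Ki from initial rates by non-linear regression.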

The target in assay [2] is PKC delta kinase (Homo sapiens, UniProt Q05655). The assay can be described thus: PKC delta kinase inhibition, coupled-enzyme (NADH absorbance) assay, Ki. The settings on record: 150 μM ATP, 46 nM PKC delta kinase, 30° C.; read-out: Ki PKC delta. In outline:
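PKC delta in 100 mM HEPES pH 7.5, 10 mM MgCl2, 25 mM NaCl, 0.1 mM EDTA, 0.01% Brij, equilibrated 10 min at 30° C with compound from DMSO stock. Started with ATP at 150 μM final; NADH-coupled absorbance at 340 nm followed 15 min at 30° C. Ki from initial rates by non-linear regression.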

The target of assay [3] is PKC alpha kinase (Homo sapiens, UniProt P17252). Kind of assay: PKC alpha kinase inhibition, coupled-enzyme (NADH absorbance) assay, Ki. The conditions noted are these: 130 μM ATP, 4.5 nM PKC alpha kinase, 30° C. In outline: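 Enzyme in 100 mM HEPES pH 7.5, 10 mM MgCl2, 100 μM CaCl2, 0.01% Brij, preincubated with compound 10 min at 30 °C. Reaction started with 130 μM ATP (final); NADH consumption followed at 340 nm for 15 min at 30 °C. Ki fitted by non-linear regression of initial rates.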

Chain of PKC delta kinase (Q05655 whole entry): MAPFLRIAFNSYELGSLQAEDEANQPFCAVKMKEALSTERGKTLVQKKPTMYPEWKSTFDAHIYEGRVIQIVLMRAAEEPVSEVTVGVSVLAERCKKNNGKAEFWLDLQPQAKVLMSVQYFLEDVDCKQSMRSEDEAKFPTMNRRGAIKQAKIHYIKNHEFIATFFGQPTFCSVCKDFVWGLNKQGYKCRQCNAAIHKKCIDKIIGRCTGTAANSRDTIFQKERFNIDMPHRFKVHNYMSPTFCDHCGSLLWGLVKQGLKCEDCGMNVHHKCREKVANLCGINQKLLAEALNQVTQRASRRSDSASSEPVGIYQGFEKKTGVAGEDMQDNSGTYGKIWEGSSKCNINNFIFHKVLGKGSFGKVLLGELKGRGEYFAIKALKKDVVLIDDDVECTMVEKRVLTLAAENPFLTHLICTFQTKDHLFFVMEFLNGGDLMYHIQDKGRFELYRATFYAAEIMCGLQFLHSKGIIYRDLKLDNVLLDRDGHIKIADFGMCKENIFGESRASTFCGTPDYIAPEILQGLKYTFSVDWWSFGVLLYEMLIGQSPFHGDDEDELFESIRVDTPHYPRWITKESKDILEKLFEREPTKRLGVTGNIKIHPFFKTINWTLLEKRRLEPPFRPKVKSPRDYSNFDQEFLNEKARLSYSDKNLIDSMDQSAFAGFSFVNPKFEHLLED
Chain of PKC theta kinase (Q04759 whole entry): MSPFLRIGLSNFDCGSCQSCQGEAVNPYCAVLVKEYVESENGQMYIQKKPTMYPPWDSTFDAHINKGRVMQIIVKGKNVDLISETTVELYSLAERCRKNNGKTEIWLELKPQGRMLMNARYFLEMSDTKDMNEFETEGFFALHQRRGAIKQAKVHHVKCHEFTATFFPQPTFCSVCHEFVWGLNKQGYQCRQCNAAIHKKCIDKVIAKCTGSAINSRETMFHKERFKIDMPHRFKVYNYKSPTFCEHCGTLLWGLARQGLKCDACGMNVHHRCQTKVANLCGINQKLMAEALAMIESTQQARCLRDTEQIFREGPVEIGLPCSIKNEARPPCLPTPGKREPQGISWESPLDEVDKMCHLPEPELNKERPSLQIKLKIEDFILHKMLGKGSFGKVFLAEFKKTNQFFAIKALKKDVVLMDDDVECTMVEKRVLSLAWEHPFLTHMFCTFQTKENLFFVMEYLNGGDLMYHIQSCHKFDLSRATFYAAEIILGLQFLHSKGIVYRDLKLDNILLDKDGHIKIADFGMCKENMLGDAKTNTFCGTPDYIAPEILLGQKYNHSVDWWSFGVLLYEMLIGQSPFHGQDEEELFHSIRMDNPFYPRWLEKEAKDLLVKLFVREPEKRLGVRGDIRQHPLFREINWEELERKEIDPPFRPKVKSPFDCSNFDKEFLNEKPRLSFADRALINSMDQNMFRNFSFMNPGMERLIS

For the molecule `CC(C)(C)C(N)C1CCCN(c2ccc(F)c(-c3n[nH]c4ncccc34)n2)C1` (stereo not drawn) [Compound 330], the Ki in assay [1] is under 1 nM; in assay [2], under 10 nM; in assay [3], under 500 nM.

In the case of `CC(C)(C)C(N)C1CCCN(c2ccc(F)c(-c3n[nH]c4ncccc34)n2)C1` (stereo not drawn) [Compound 331], the figures for the Ki in assay [1], in assay [2] and in assay [3] were under 500 nM, under 2800 nM and over 1250 nM, respectively.

Consider `CC1CN(c2ccc(C(F)(F)F)c(-c3n[nH]c4ncccc34)n2)CC1CN` (stereo not drawn) [Compound 332], for which the Ki in assay [1] is over 700 nM; in assay [2] it was over 1250 nM; in assay [3], over 1250 nM.

On to `CC(C)CC1CCCN(c2ccc(C(F)(F)F)c(-c3n[nH]c4ncccc34)n2)C1` (stereo not drawn) [Compound 333], for which the results for the Ki in assay [1], in assay [2] and in assay [3] were over 700 nM, over 1250 nM and over 1250 nM, respectively.

Consider `CC(C)CC1CCCN(c2ccc(F)c(-c3n[nH]c4ncccc34)n2)C1` (stereo not drawn) [Compound 334], for which the Ki in assay [1] is over 700 nM; in assay [2], over 1250 nM; in assay [3] it was over 1250 nM.

Consider `NCc1cccc(-c2cccc(-c3n[nH]c4ncccc34)n2)c1` [Compound 335], for which the Ki in assay [1], in assay [2] and in assay [3] was under 2800 nM each time.

As to `NCC1CN(c2ccc(C(F)(F)F)c(-c3n[nH]c4ncccc34)n2)CCO1` (stereo not drawn) [Compound 336], the figures for the Ki in assay [1], in assay [2] and in assay [3] were over 700 nM, over 1250 nM and over 1250 nM, respectively.

As to `CC(C)CC1CN(c2ccc(C(F)(F)F)c(-c3n[nH]c4ncccc34)n2)CCC1C#N` (stereo not drawn) [Compound 337], the Ki is under 500 nM in assay [1], over 1250 nM in assay [2] and over 1250 nM in assay [3].

Turning to `CCC[C@H]1CN(c2ccc(F)c(-c3n[nH]c4ncccc34)n2)C[C@H]1N` [Compound 338], the Ki in assay [1] is under 500 nM; in assay [2], over 1250 nM; in assay [3] it was over 1250 nM.

Regarding `CCC[C@H]1CN(c2ccc(F)c(-c3n[nH]c4ncccc34)n2)C[C@@H]1N` [Compound 339], the Ki is under 500 nM in assay [1], over 1250 nM in assay [2] and over 1250 nM in assay [3].

Turning to `CCC[C@H]1CN(c2ccc(C(F)(F)F)c(-c3n[nH]c4ncccc34)n2)C[C@H]1N` [Compound 340], the values for the Ki in assay [1], in assay [2] and in assay [3] were over 700 nM, over 1250 nM and over 1250 nM, respectively.

For `CCC[C@H]1CN(c2ccc(C(F)(F)F)c(-c3n[nH]c4ncccc34)n2)C[C@@H]1N` [Compound 341], the Ki in assay [1] is over 700 nM; in assay [2] it was over 1250 nM; in assay [3], over 1250 nM.

With `CC(C)C(C)(O)C1CN(c2cc(C(F)(F)F)cc(-c3n[nH]c4ncccc34)n2)CCN1` (stereo not drawn) [Compound 342], the Ki in assay [1] was under 500 nM; in assay [2], over 1250 nM; in assay [3], over 1250 nM.

For `NC1(C2CCCN(c3ccc(F)c(-c4n[nH]c5ncccc45)n3)C2)CCCC1` (stereo not drawn) [Compound 344], the Ki in assay [1] was under 50 nM; in assay [2], under 500 nM; in assay [3] it was over 1250 nM.

In the case of `CC(C)(F)C(N)C1CCCN(c2ccc(F)c(-c3n[nH]c4ncccc34)n2)C1` (stereo not drawn) [Compound 345], the results for the Ki in assay [1], in assay [2] and in assay [3] were under 50 nM, under 500 nM and over 1250 nM, respectively.

For `CC(C)C(N)C1CN(c2ccc(F)c(-c3n[nH]c4ncccc34)n2)CCO1` (stereo not drawn) [Compound 346], the Ki in assay [1] is under 50 nM; in assay [2], under 2800 nM; in assay [3] it was over 1250 nM.

`CC(C)C(N)C1CN(c2ccc(C(F)(F)F)c(-c3n[nH]c4ncccc34)n2)CCO1` (stereo not drawn) [Compound 348]: the values for the Ki in assay [1], in assay [2] and in assay [3] were under 500 nM, over 1250 nM and over 1250 nM, respectively.

Regarding `CC(C)CC1CN(c2ccc(C(F)(F)F)c(-c3n[nH]c4ncccc34)n2)CCC1CN` (stereo not drawn) [Compound 350], the Ki was under 50 nM in assay [1], over 1250 nM in assay [2] and over 1250 nM in assay [3].

Turning to `CC(C)CC1(CN)CCCN(c2ccc(F)c(-c3n[nH]c4ncccc34)n2)C1` (stereo not drawn) [Compound 351], the Ki in assay [1] is under 50 nM; in assay [2], under 2800 nM; in assay [3], over 1250 nM.

For the molecule `CC(C)CC1(CN)CCCN(c2ccc(C(F)(F)F)c(-c3n[nH]c4ncccc34)n2)C1` (stereo not drawn) [Compound 352], the Ki in assay [1] was under 500 nM; in assay [2], under 2800 nM; in assay [3], over 1250 nM.

For the molecule `NC[C@@H]1CCN(c2ccc(C(F)(F)F)c(-c3n[nH]c4ncccc34)n2)C1` [Compound 353], the results for the Ki in assay [1], in assay [2] and in assay [3] were over 700 nM, over 1250 nM and over 1250 nM, respectively.

In the case of `NC[C@H]1CCN(c2ccc(C(F)(F)F)c(-c3n[nH]c4ncccc34)n2)C1` [Compound 354], the figures for the Ki in assay [1], in assay [2] and in assay [3] were over 700 nM, over 1250 nM and over 1250 nM, respectively.

As to `NC[C@@H]1CCCN1c1ccc(F)c(-c2n[nH]c3ncccc23)n1` [Compound 355], the figures for the Ki in assay [1], in assay [2] and in assay [3] were over 700 nM, over 1250 nM and over 1250 nM, respectively.

As to `NC[C@@H]1CCCN1c1ccc(C(F)(F)F)c(-c2n[nH]c3ncccc23)n1` [Compound 356], the results for the Ki in assay [1], in assay [2] and in assay [3] were over 700 nM, over 1250 nM and over 1250 nM, respectively.

Consider `NC[C@@H]1CCN(c2ccc(F)c(-c3n[nH]c4ncccc34)n2)C1` [Compound 357], for which the Ki in assay [1] is under 500 nM; in assay [2] it was over 1250 nM; in assay [3], over 1250 nM.

Regarding `FC(F)(F)c1ccc(N2CCC(Nc3ccccc3)CC2)nc1-c1n[nH]c2ncccc12` [Compound 358], the Ki in assay [1] was over 700 nM; in assay [2], over 1250 nM; in assay [3] it was over 1250 nM.

Turning to `CNC1CCN(c2ccc(C(F)(F)F)c(-c3n[nH]c4ncccc34)n2)CC1` [Compound 359], the Ki in assay [1] is over 700 nM; in assay [2] it was over 1250 nM; in assay [3] it was over 1250 nM.

As for `CC(C)(N)C1CCN(c2ccc(F)c(-c3n[nH]c4ncccc34)n2)C1` (stereo not drawn) [Compound 360], the Ki is under 500 nM in assay [1], under 2800 nM in assay [2] and over 1250 nM in assay [3].

For the molecule `CC(C)(N)C1CCN(c2ccc(C(F)(F)F)c(-c3n[nH]c4ncccc34)n2)C1` (stereo not drawn) [Compound 361], the Ki in assay [1] was over 700 nM; in assay [2], over 1250 nM; in assay [3] it was over 1250 nM.

Take `NC[C@H]1CCN(c2ccc(F)c(-c3n[nH]c4ncccc34)n2)C1` [Compound 362]: the Ki was under 500 nM in assay [1], over 1250 nM in assay [2] and over 1250 nM in assay [3].

Consider `NCC1CN(c2ccc(C(F)(F)F)c(-c3n[nH]c4ncccc34)n2)C1` [Compound 363], for which the Ki in assay [1] was over 700 nM; in assay [2], over 1250 nM; in assay [3], over 1250 nM.

As for `CC(C)C[C@@H]1C[C@H](N)CN(c2ccc(C(F)(F)F)c(-c3n[nH]c4ncccc34)n2)C1` [Compound 364], the values for the Ki in assay [1], in assay [2] and in assay [3] were under 500 nM, over 1250 nM and over 1250 nM, respectively.

For the molecule `CC(C)C[C@@H]1C[C@@H](N)CN(c2ccc(C(F)(F)F)c(-c3n[nH]c4ncccc34)n2)C1` [Compound 365], the values for the Ki in assay [1], in assay [2] and in assay [3] were under 500 nM, over 1250 nM and over 1250 nM, respectively.

Consider `CC(C)C[C@@H]1C[C@H](N)CN(c2ccc(F)c(-c3n[nH]c4ncccc34)n2)C1` [Compound 366], for which the Ki in assay [1] was under 50 nM; in assay [2] it was under 2800 nM; in assay [3], over 1250 nM.

For `CC(C)C[C@@H]1C[C@@H](N)CN(c2ccc(F)c(-c3n[nH]c4ncccc34)n2)C1` [Compound 367], the Ki in assay [1] was under 50 nM; in assay [2], under 2800 nM; in assay [3], over 1250 nM.

On to `NC1CCN(c2ccc(F)c(-c3n[nH]c4ncccc34)n2)CC1` [Compound 368], for which the Ki is under 500 nM in assay [1], over 1250 nM in assay [2] and over 1250 nM in assay [3].

As for `CNC1CCN(c2ccc(F)c(-c3n[nH]c4ncccc34)n2)CC1` [Compound 369], the Ki is under 500 nM in assay [1], over 1250 nM in assay [2] and over 1250 nM in assay [3].

Turning to `CC(C)CC1CN(c2ccc(F)c(-c3n[nH]c4ncccc34)n2)CCC1C#N` (stereo not drawn) [Compound 370], the Ki in assay [1] was under 50 nM; in assay [2], under 2800 nM; in assay [3] it was over 1250 nM.

`CS(=O)(=O)NCC1CCCN(c2ccc(F)c(-c3n[nH]c4ncccc34)n2)C1` (stereo not drawn) [Compound 371]: the Ki is over 700 nM in assay [1], over 1250 nM in assay [2] and over 1250 nM in assay [3].

Regarding `CS(=O)(=O)NCC1CCCN(c2ccc(C(F)(F)F)c(-c3n[nH]c4ncccc34)n2)C1` (stereo not drawn) [Compound 372], the Ki in assay [1] is over 700 nM; in assay [2], over 1250 nM; in assay [3] it was over 1250 nM.

Take `CC(C)C(C)(O)C1CN(c2nc(-c3n[nH]c4ncccc34)ccc2F)CCN1` (stereo not drawn) [Compound 373]: the Ki was under 1 nM in assay [1], under 50 nM in assay [2] and under 500 nM in assay [3].

Regarding `CC(C)C(C)(O)C1CN(c2nc(-c3n[nH]c4ncccc34)ccc2F)CCN1` (stereo not drawn) [Compound 374], the figures for the Ki in assay [1], in assay [2] and in assay [3] were under 50 nM, under 500 nM and over 1250 nM, respectively.

For the molecule `CC(C)C(C)(O)C1CN(c2nc(-c3n[nH]c4ncccc34)ccc2F)CCN1` (stereo not drawn) [Compound 375], the figures for the Ki in assay [1], in assay [2] and in assay [3] were under 1 nM, under 50 nM and under 2800 nM, respectively.
